{
  "source": "patent US11208412B2",
  "about": "(DAEGU-GYEONGBUK MEDICAL INNOVATION FOUNDATION, priority 2017, dated 2021)",
  "assay_in_all_cases": "Kinase selectivity, DiscoverX scanMAX Kinase assay panel (% control)",
  "assay_type_in_all_cases": "binding",
  "key": {"[1]": {"molecular_target": "T1, kinases of the scanMAX Kinase assay panel (Homo sapiens, UniProt P17612)", "T1 construct": "purchased DiscoverX Co. (contract measurement) scanMAX Kinase assay panel", "details": "PKAC-alpha; 1 uM", "summary_of_the_method": "(§1)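 Binding-panel profiling at one concentration, 1 uM in DMSO; values are % of DMSO control after subtracting the positive-control floor. Less than 35% means activity on that kinase.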"}, "[2]": {"molecular_target": "T2, kinases of the scanMAX Kinase assay panel (Homo sapiens, UniProt Q05397)", "T2 construct": "purchased DiscoverX Co. (contract measurement) scanMAX Kinase assay panel", "T2 sequence (Q05397 whole entry)": "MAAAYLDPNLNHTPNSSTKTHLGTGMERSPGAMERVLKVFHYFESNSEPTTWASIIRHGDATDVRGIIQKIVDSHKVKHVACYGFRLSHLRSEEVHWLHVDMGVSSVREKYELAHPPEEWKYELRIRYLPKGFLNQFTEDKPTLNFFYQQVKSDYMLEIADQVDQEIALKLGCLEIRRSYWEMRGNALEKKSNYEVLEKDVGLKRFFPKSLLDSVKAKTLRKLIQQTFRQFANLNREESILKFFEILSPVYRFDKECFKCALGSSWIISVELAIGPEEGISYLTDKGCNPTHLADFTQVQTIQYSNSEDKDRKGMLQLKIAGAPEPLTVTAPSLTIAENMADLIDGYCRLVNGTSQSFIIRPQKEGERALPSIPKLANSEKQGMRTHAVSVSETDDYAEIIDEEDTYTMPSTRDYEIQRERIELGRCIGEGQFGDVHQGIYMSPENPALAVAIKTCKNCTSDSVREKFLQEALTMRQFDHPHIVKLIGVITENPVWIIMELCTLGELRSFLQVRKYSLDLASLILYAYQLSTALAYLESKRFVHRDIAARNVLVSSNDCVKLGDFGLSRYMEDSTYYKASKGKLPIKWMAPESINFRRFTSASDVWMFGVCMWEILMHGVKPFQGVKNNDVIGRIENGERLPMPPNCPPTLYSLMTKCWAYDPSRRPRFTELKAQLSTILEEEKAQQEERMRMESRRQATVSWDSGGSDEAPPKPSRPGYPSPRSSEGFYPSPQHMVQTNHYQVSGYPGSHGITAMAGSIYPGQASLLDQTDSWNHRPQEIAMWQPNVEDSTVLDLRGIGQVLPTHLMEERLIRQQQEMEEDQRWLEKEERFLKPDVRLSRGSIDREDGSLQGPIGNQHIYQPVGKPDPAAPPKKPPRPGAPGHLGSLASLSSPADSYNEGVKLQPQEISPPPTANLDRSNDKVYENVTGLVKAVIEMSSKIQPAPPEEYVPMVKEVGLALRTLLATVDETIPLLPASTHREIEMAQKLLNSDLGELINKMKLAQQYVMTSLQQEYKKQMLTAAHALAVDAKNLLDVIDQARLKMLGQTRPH", "details": "FAK; 1 uM", "summary_of_the_method": "as §1"}, "[3]": {"molecular_target": "T3, kinases of the scanMAX Kinase assay panel (Homo sapiens, UniProt Q15418)", "T3 construct": "purchased DiscoverX Co. (contract measurement) scanMAX Kinase assay panel", "T3 sequence (Q15418 whole entry)": "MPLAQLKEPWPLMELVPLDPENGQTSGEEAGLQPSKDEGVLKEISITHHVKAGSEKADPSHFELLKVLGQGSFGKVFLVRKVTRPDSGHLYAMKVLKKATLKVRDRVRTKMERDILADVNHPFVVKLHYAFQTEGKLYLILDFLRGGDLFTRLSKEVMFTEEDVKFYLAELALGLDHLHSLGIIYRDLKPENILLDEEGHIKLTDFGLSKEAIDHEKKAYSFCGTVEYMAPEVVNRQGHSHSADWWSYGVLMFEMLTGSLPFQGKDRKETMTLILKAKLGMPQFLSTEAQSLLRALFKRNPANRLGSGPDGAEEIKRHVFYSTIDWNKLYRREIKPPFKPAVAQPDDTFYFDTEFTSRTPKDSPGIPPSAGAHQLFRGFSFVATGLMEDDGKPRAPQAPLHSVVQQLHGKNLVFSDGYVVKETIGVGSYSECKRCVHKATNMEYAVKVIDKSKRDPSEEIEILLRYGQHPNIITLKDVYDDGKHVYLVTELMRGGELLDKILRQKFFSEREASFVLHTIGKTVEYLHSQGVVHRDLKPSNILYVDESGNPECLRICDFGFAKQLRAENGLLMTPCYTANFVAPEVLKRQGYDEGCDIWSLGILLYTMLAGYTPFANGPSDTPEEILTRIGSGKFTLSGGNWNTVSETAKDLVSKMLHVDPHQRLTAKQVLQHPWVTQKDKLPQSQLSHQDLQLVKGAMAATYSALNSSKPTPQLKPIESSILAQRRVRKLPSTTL", "details": "1 uM in DMSO", "summary_of_the_method": "as §1"}, "[4]": {"molecular_target": "T4, kinases of the scanMAX Kinase assay panel (Homo sapiens, UniProt Q6XUX3)", "T4 construct": "purchased DiscoverX Co. (contract measurement) scanMAX Kinase assay panel", "T4 sequence (Q6XUX3 1-929)": "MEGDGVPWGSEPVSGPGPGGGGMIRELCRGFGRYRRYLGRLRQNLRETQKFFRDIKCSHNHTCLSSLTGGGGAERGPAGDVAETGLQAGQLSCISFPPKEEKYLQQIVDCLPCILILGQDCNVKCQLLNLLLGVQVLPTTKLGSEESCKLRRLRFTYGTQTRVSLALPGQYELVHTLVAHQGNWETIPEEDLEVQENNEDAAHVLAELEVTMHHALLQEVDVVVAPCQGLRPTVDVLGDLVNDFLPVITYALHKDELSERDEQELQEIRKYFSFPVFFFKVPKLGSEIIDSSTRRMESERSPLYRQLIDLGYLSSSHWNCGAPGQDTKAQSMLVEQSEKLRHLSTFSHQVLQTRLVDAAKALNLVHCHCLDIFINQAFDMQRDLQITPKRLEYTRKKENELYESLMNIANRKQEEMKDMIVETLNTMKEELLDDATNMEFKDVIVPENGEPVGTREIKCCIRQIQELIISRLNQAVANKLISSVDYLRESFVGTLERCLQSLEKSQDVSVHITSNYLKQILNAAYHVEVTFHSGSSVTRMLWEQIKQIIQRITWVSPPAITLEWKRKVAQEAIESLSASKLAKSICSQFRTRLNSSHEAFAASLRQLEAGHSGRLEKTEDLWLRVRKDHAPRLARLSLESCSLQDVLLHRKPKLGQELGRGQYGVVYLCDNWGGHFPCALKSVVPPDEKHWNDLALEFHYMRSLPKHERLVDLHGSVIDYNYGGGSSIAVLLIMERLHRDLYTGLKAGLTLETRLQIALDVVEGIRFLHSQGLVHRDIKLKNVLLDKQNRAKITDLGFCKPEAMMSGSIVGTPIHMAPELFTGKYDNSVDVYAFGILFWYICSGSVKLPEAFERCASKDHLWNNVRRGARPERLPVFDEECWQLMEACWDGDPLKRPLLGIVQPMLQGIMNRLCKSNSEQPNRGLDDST", "details": "kinase RIPK5; 1 uM in DMSO", "summary_of_the_method": "as §1"}, "[5]": {"molecular_target": "T5, kinases of the scanMAX Kinase assay panel (Homo sapiens, UniProt Q92630)", "T5 construct": "purchased DiscoverX Co. (contract measurement) scanMAX Kinase assay panel", "T5 sequence (Q92630 1-601)": "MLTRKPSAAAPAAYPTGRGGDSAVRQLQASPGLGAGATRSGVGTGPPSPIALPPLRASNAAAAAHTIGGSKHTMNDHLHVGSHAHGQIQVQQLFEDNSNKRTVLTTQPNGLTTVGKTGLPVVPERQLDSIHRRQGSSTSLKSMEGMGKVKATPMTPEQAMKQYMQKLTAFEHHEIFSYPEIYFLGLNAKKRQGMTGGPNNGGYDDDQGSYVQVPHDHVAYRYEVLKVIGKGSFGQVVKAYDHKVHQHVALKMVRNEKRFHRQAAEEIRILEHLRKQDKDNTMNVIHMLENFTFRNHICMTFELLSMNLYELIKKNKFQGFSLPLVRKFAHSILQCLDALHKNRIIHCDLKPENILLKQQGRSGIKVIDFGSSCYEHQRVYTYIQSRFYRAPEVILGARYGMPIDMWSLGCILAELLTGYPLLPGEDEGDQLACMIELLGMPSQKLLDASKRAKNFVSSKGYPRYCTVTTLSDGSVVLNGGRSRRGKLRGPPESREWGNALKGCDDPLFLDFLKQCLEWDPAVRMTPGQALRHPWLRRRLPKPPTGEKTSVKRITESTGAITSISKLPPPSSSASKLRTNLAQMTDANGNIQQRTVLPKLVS", "details": "DYRK2; 1 uM", "summary_of_the_method": "as §1"}, "[6]": {"molecular_target": "T6, kinases of the scanMAX Kinase assay panel (Homo sapiens, UniProt Q9NRH2)", "T6 construct": "purchased DiscoverX Co. (contract measurement) scanMAX Kinase assay panel", "T6 sequence (Q9NRH2 1-765)": "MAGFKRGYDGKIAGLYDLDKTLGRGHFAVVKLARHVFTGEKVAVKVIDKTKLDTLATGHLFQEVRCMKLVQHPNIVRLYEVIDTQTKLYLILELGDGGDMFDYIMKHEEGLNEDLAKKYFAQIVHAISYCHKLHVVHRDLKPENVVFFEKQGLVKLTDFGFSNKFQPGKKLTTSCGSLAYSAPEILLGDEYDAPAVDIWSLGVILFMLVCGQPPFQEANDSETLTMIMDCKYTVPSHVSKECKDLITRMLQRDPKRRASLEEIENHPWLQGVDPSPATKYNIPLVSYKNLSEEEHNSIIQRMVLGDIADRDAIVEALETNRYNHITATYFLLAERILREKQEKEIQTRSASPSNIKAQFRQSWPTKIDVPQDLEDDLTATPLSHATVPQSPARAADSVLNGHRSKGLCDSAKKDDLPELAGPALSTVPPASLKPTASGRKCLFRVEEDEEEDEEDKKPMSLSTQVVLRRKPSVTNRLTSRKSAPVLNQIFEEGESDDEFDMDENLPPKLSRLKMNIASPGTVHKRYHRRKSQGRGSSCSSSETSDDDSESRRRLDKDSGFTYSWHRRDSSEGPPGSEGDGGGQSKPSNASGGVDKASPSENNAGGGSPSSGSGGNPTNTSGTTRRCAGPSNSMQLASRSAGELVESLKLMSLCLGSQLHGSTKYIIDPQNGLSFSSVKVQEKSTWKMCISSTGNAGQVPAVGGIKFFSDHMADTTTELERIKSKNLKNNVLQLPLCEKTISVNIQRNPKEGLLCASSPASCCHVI", "details": "kinase SNRK; 1 uM in DMSO", "summary_of_the_method": "as §1"}, "[7]": {"details": "kinase RSK1(Kin.Dom.1-N-terminal), read-out: % control, RSK1(Kin.Dom.1-N-terminal)"}, "[8]": {"details": "kinase RSK1(Kin.Dom.2-C-terminal), read-out: % control, RSK1(Kin.Dom.2-C-terminal)"}},
  "note": "Like-named read-outs stand apart in the source and are kept apart here.",
  "data": [
    {"compound": "CNc1nc(Nc2ccc(C(=O)N3CCOCC3)cc2OC)nc2[nH]cc(C#N)c12", "note": "[Example 1, 2-((2-methoxy-4-(morpholine-4-carbonyl)phenyl)amino)-4-(methylamino)-7H-pyrrolo[2,3-d]pyrimidine-5-carbonitrile]", "values": [
      {"measurement": "remaining binding at 1 µM", "setting": "[1]", "result": 100, "unit": "%"},
      {"measurement": "remaining binding at 1 µM", "setting": "[2]", "result": 55, "unit": "%"},
      {"measurement": "remaining binding at 1 µM", "setting": "[3]; [7]", "result": 98, "unit": "%"},
      {"measurement": "remaining binding at 1 µM", "setting": "[3]; [8]", "result": 59, "unit": "%"},
      {"measurement": "remaining binding at 1 µM", "setting": "[4]", "result": 10, "unit": "%"},
      {"measurement": "remaining binding at 1 µM", "setting": "[5]", "result": 22, "unit": "%"},
      {"measurement": "remaining binding at 1 µM", "setting": "[6]", "result": 64, "unit": "%"}
    ]},
    {"compound": "CC1(Nc2nc(Nc3cnn([C@H]4CCN(C5COC5)C[C@@H]4F)c3Cl)nc3[nH]cc(C#N)c23)CC1", "note": "[Example 52, 2-((5-chloro-1-((3S,4S)-3-fluoro-1-(oxetane-3-yl)piperidine-4-yl)-1H-pyrazole-4-yl)amino)((1-methylcyclopropyl)amino)-7H-pyrrolo[2,3-d]pyrimidine-5-carbonitrile]", "values": [
      {"measurement": "remaining binding at 1 µM", "setting": "[1]", "result": 100, "unit": "%"},
      {"measurement": "remaining binding at 1 µM", "setting": "[2]", "result": 0.3, "unit": "%"},
      {"measurement": "remaining binding at 1 µM", "setting": "[3]; [7]", "result": 2.4, "unit": "%"},
      {"measurement": "remaining binding at 1 µM", "setting": "[3]; [8]", "result": 52, "unit": "%"},
      {"measurement": "remaining binding at 1 µM", "setting": "[4]", "result": 3.7, "unit": "%"},
      {"measurement": "remaining binding at 1 µM", "setting": "[5]", "result": 0.8, "unit": "%"},
      {"measurement": "remaining binding at 1 µM", "setting": "[6]", "result": 7.6, "unit": "%"}
    ]},
    {"compound": "CCNc1nc(Nc2ccc(C(=O)N3CCC(N4CCOCC4)CC3)cc2OC)nc2[nH]cc(C(F)(F)F)c12", "note": "[Example 104, (4-((4-(ethylamino)-5-(trifluoromethyl)-7H-pyrrolo[2,3-d]pyrimidine-2-yl)amino)-3-methoxyphenyl)(4-morpholinopiperidine-1-yl)methanone]", "values": [
      {"measurement": "remaining binding at 1 µM", "setting": "[1]", "result": 100, "unit": "%"},
      {"measurement": "remaining binding at 1 µM", "setting": "[2]", "result": 3.8, "unit": "%"},
      {"measurement": "remaining binding at 1 µM", "setting": "[3]; [7]", "result": 89, "unit": "%"},
      {"measurement": "remaining binding at 1 µM", "setting": "[3]; [8]", "result": 61, "unit": "%"},
      {"measurement": "remaining binding at 1 µM", "setting": "[4]", "result": 18, "unit": "%"},
      {"measurement": "remaining binding at 1 µM", "setting": "[5]", "result": 25, "unit": "%"},
      {"measurement": "remaining binding at 1 µM", "setting": "[6]", "result": 69, "unit": "%"}
    ]}
  ]
}
